Holding throughout (test): Western blot of apoptosis- and cell cycle-related proteins
Common to all, as to format: cell-based, canine
In general terms: A western blot detects proteins with antibodies after separation by electrophoresis.

Test [1] has as its system CMT-7364 cells. The note with it: inhibitor with celastrol, 24 h, vs celastrol alone. As for the experimental part: (§1) The CMT-7364 and CIPp cells were treated with different concentrations of Caspase inhibitor Z-V-F and/or celastrol for 24 h, and the cells were lysed with RIPA lysis buffer on ice. The protein was extracted according to the manufacturer's instructions, and protein concentration was determined by the BCA protein concentration assay kit. The loading amount of 20 μg protein in each group was separated by 10% SDS-PAGE, the separated protein was transferred to polyvinylidene fluoride membrane. After blocking with 5% skimmed milk for 1 h, the membrane was washed two times with 0.5% PBS-Tween 20 (PBS-T), then the membrane with the primary antibody was incubated overnight in a shaker at 4°C. Primary antibodies include β-actin (1:2,000), p65 (1:1,000), NF-κB (1:1,000), Caspase-9 (1:1,000), Caspase-3 (1:1,000), Bax (1:2,000), Bcl-2 (1:1,000), Cyclin D1 (1:1,000), p21 (1:1,000), and p27 (1:1,000). After washing 3 times with PBS-T buffer for 10 min each time, the membrane was incubated with HRP-conjugated secondary antibody at 37°C for 30 min. Secondary antibodies include anti-mouse IgG antibody (1:5,000), anti-rabbit IgG antibody (1:2,000~1:4,000). The membrane was washed 3 times with PBS-T for 10 min each time. Finally, it was detected by an enhanced chemiluminescence detection system, and the results were quantified by ImageJ.

Test [2] relates to CIPp cells. As to conditions: inhibitor with celastrol, 24 h, vs celastrol alone. As for the experimental part:
as §1

For test [3], the system named is CIPp cells. The note with it: inhibitor with 0.9 μM celastrol, 24 h.
For test [4], the system named is CMT-7364 cells. As to conditions: inhibitor with 0.9 μM celastrol, 24 h.

Molecules are shown by their SMILES. Peptide text beside a SMILES is read from it. * marks the point of attachment. Cbz = O=C(OCc1ccccc1)*; CH2F = FC*

For `COC(=O)C[C@H](NC(=O)[C@H](C)NC(=O)[C@@H](NC(=O)OCc1ccccc1)C(C)C)C(=O)CF` [Z-V-F, Z-VAD-FMK] (Cbz-Val-Ala-Asp(OMe)-CH2F), the “expression of anti-apoptotic protein Bcl-2” value with CMT-7364 cells [1] and in the test with CIPp cells [2] was “increased” throughout. The “expression of pro-apoptotic protein Bax induced by celastrol” value with CMT-7364 cells [1] and in the test on CIPp cells [2] was “decreased” each time. Moreover, the “effect on 0.9 μM celastrol-induced apoptosis” value in the test with CIPp cells [3] and in the test on CMT-7364 cells [4] was “block” in each case.

For the origin of these results see PMC8854749, “Celastrol Inhibits Canine Mammary Tumor Cells by Inducing Apoptosis via the Caspase Pathway” (Frontiers in Veterinary Science, 2022).
